Results from ChEMBL document CHEMBL1201862, “PubChem BioAssay data set” (2004).
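All cell lines were grown in 96-well plates and treated with compound for 48 hours. GI50 is the concentration that inhibits growth by half.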 Calls of active or inactive are those of the source. Rule as the data show it: active = GI50 up to about 1.1 µM and inactive = higher.

Columns and labels:
Assay in all cases: DTP human tumour cell line panel, 48 h
[1] = tested on: UACC-257
[2] = tested on: M19-MEL
[3] = tested on: RXF 393
[4] = tested on: TK-10
[5] = tested on: DMS-114
[6] = tested on: Malme-3M
[7] = tested on: OVCAR-3
[8] = tested on: SNB-78
[9] = tested on: EKVX
[10] = tested on: 786-0
[11] = tested on: KM12
[12] = tested on: LOX IMVI
[13] = tested on: NCI-H460
[14] = tested on: SN12C
[15] = tested on: RPMI-8226
[16] = tested on: DMS-273
[17] = tested on: SF-295
[18] = tested on: OVCAR-5
[19] = tested on: SF-539
[20] = tested on: DLD-1
[21] = tested on: HCT-15
[22] = tested on: SNB-75
[23] = tested on: OVCAR-8
[24] = tested on: OVCAR-4
[25] = tested on: IGROV-1
[26] = tested on: KM-20L2
[27] = tested on: U-251
[28] = tested on: SK-MEL-28
[29] = tested on: UACC-62
[30] = tested on: SK-MEL-2
[31] = tested on: XF498
[32] = tested on: HOP-92
[33] = tested on: HCT-116
[34] = tested on: A498
[35] = tested on: SK-MEL-5
[36] = tested on: SF-268
[37] = tested on: HOP-62
[38] = tested on: HT-29
[39] = tested on: CAKI-1
[40] = tested on: HOP-18
[41] = tested on: K562
[42] = tested on: COLO 205
[43] = tested on: NCI-H23
[44] = tested on: SNB-19
[45] = tested on: ACHN
[46] = tested on: SW-620
[47] = tested on: A549
[48] = tested on: DU-145
[49] = tested on: MOLT-4
[50] = tested on: LXFL 529
[51] = tested on: M14
[52] = tested on: MDA-N
[53] = tested on: SK-OV-3
[54] = tested on: HL-60
[55] = tested on: MDA-MB-435
[56] = tested on: CCRF-CEM
[57] = tested on: MCF7
[58] = tested on: NCI/ADR-RES
[59] = tested on: Hs-578T
[60] = tested on: MDA-MB-231
[61] = tested on: BT-549
[62] = tested on: NCI-H226
[63] = tested on: T47D
[64] = tested on: HCC 2998
[65] = tested on: UO-31

With `CC(C)(C)/N=C\N1CCC(C(c2ccccc2)c2ccccc2)CC1` as the compound, how does the GI50 [1] read?
Its GI50 is 37.3 µM (inactive).

And the GI50 [2]?
The GI50 was 37.2 µM (inactive).

What about the GI50 [3] of the same compound?
Its GI50 is 22.9 µM (inactive).

What about the GI50 [4] of the same compound?
Its GI50 is 40.6 µM (inactive).

What about the GI50 [5] of the same compound?
Its GI50 is 72.1 µM (inactive).

And the GI50 [6]?
Its GI50 is 18.2 µM (inactive).

What about the GI50 [7] of the same compound?
The GI50 was 80.5 µM (inactive).

What about the GI50 [8] of the same compound?
Its GI50 is 64.6 µM (inactive).

And the GI50 [9]?
Its GI50 is > 100 µM (inactive).

What about the GI50 [10] of the same compound?
The GI50 was > 100 µM (inactive).

What about the GI50 [11] of the same compound?
Its GI50 is 65.8 µM (inactive).

And the GI50 [12]?
The GI50 was 23.8 µM (inactive).

What about the GI50 [13] of the same compound?
The GI50 was 87.7 µM (inactive).

And the GI50 [14]?
The GI50 was 78.3 µM (inactive).

What about the GI50 [15] of the same compound?
The GI50 was 45.2 µM (inactive).

What about the GI50 [16] of the same compound?
The GI50 was 65.3 µM (inactive).

What about the GI50 [17] of the same compound?
Its GI50 is > 100 µM (inactive).

What about the GI50 [18] of the same compound?
The GI50 was 54.2 µM (inactive).

What about the GI50 [19] of the same compound?
Its GI50 is 78.7 µM (inactive).

And the GI50 [20]?
The GI50 was > 100 µM (inactive).

What about the GI50 [21] of the same compound?
The GI50 was 55.3 µM.

What about the GI50 [22] of the same compound?
Its GI50 is 21.9 µM (inactive).

What about the GI50 [23] of the same compound?
The GI50 was > 100 µM (inactive).

What about the GI50 [24] of the same compound?
The GI50 was 46.8 µM (inactive).

And the GI50 [25]?
Its GI50 is > 100 µM (inactive).

And the GI50 [26]?
Its GI50 is 14.9 µM (inactive).

And the GI50 [27]?
The GI50 was 60.4 µM (inactive).

What about the GI50 [28] of the same compound?
The GI50 was 43.4 µM (inactive).

And the GI50 [29]?
The GI50 was 35.7 µM (inactive).

What about the GI50 [30] of the same compound?
The GI50 was > 100 µM (inactive).

What about the GI50 [31] of the same compound?
The GI50 was 30.8 µM (inactive).

What about the GI50 [32] of the same compound?
The GI50 was 31.7 µM (inactive).

And the GI50 [33]?
The GI50 was 50 µM (inactive).

And the GI50 [34]?
Its GI50 is 38.3 µM (inactive).

What about the GI50 [35] of the same compound?
The GI50 was 67 µM (inactive).

And the GI50 [36]?
The GI50 was 49.8 µM (inactive).

And the GI50 [37]?
The GI50 was > 100 µM (inactive).

And the GI50 [38]?
Its GI50 is 21.6 µM (inactive).

And the GI50 [39]?
Its GI50 is 42.4 µM (inactive).

And the GI50 [40]?
The GI50 was 53.2 µM (inactive).

What about the GI50 [41] of the same compound?
Its GI50 is 35.1 µM (inactive).

What about the GI50 [42] of the same compound?
Its GI50 is 19.1 µM (inactive).

What about the GI50 [43] of the same compound?
Its GI50 is > 100 µM (inactive).

And the GI50 [44]?
The GI50 was > 100 µM (inactive).

And the GI50 [45]?
The GI50 was 82.4 µM (inactive).

And the GI50 [46]?
Its GI50 is > 100 µM (inactive).

What about the GI50 [47] of the same compound?
The GI50 was 98.4 µM (inactive).

Which GI50 [1] does the source give for `C/C(=N\NC(=S)NNC(=S)N(C)c1ccccc1)c1ccccn1` here?
The GI50 was 1.31 µM (inactive).

And the GI50 [48]?
The GI50 was 1.02 µM (active).

And the GI50 [2]?
The GI50 was 0.547 µM (active).

And the GI50 [3]?
The GI50 was 4.19 µM (inactive).

And the GI50 [49]?
The GI50 was 0.43 µM (active).

What about the GI50 [50] of the same compound?
Its GI50 is 0.815 µM (active).

And the GI50 [4]?
Its GI50 is 2.86 µM (inactive).

What about the GI50 [5] of the same compound?
Its GI50 is 0.399 µM (active).

And the GI50 [6]?
The GI50 was 1.66 µM (inactive).

What about the GI50 [51] of the same compound?
Its GI50 is 0.454 µM (active).

What about the GI50 [52] of the same compound?
The GI50 was 4.06 µM (inactive).

And the GI50 [7]?
Its GI50 is 0.544 µM (active).

What about the GI50 [8] of the same compound?
Its GI50 is 8.55 µM (inactive).

And the GI50 [9]?
The GI50 was 0.805 µM (active).

What about the GI50 [10] of the same compound?
The GI50 was 1.3 µM (inactive).

What about the GI50 [53] of the same compound?
The GI50 was 1.48 µM (inactive).

And the GI50 [11]?
The GI50 was 4.21 µM (inactive).

What about the GI50 [54] of the same compound?
Its GI50 is 0.343 µM (active).

And the GI50 [13]?
Its GI50 is 0.681 µM (active).

And the GI50 [14]?
Its GI50 is 1.6 µM (inactive).

What about the GI50 [55] of the same compound?
The GI50 was 3.52 µM (inactive).

And the GI50 [15]?
Its GI50 is 0.912 µM (active).

And the GI50 [16]?
Its GI50 is 1.46 µM (inactive).

And the GI50 [56]?
The GI50 was 0.399 µM (active).

What about the GI50 [17] of the same compound?
Its GI50 is 2.94 µM (inactive).

What about the GI50 [18] of the same compound?
Its GI50 is 24 µM (inactive).

And the GI50 [19]?
Its GI50 is 2.07 µM (inactive).

What about the GI50 [20] of the same compound?
The GI50 was 0.618 µM (active).

And the GI50 [21]?
Its GI50 is 1.16 µM.

And the GI50 [22]?
Its GI50 is 6.76 µM (inactive).

And the GI50 [23]?
Its GI50 is 0.538 µM (active).

And the GI50 [24]?
The GI50 was 1.75 µM (inactive).

And the GI50 [57]?
The GI50 was 1.84 µM (inactive).

What about the GI50 [25] of the same compound?
The GI50 was 0.764 µM (active).

And the GI50 [27]?
Its GI50 is 1.11 µM (active).

What about the GI50 [28] of the same compound?
The GI50 was 4.25 µM (inactive).

And the GI50 [58]?
Its GI50 is 2.66 µM (inactive).

What about the GI50 [30] of the same compound?
The GI50 was 5.68 µM (inactive).

What about the GI50 [31] of the same compound?
Its GI50 is 14.1 µM (inactive).

And the GI50 [32]?
Its GI50 is 2.52 µM (inactive).

And the GI50 [33]?
Its GI50 is 0.673 µM (active).

What about the GI50 [59] of the same compound?
Its GI50 is 26 µM (inactive).

What about the GI50 [36] of the same compound?
The GI50 was 2.91 µM (inactive).

And the GI50 [37]?
The GI50 was 0.885 µM (active).

What about the GI50 [38] of the same compound?
Its GI50 is 0.455 µM (active).

And the GI50 [39]?
Its GI50 is 0.977 µM (active).

What about the GI50 [40] of the same compound?
The GI50 was 0.198 µM (active).

What about the GI50 [60] of the same compound?
The GI50 was 6.22 µM (inactive).

What about the GI50 [41] of the same compound?
Its GI50 is 2.31 µM (inactive).

And the GI50 [42]?
The GI50 was 0.673 µM (active).

And the GI50 [61]?
The GI50 was 3.14 µM (inactive).

And the GI50 [43]?
The GI50 was 2.79 µM (inactive).

What about the GI50 [62] of the same compound?
The GI50 was 1.41 µM (inactive).

And the GI50 [44]?
The GI50 was 2.7 µM (inactive).

What about the GI50 [45] of the same compound?
Its GI50 is 0.628 µM (active).

And the GI50 [63]?
The GI50 was 2.96 µM (inactive).

What about the GI50 [64] of the same compound?
Its GI50 is 1.32 µM (inactive).

What about the GI50 [46] of the same compound?
Its GI50 is 0.489 µM (active).

And the GI50 [65]?
The GI50 was 0.577 µM (active).

What about the GI50 [47] of the same compound?
Its GI50 is 1.11 µM (active).
